{
  "source": "patent US20060035212A1",
  "about": "“Molecules inhibiting hepatitis c virus protein synthesis and method for screening same” (Universte Joseph Fourier, priority 2002, published 2006)",
  "molecules": {"B1": {"name": "RRMp116: recombinant RNA recognition motif of the eIF3 p116 subunit (SEQ ID 5), C-terminal His6-Tag (protein)", "chain": "MDRPQEADGIDSVIVVDNVPQVGPDRLEKLKNVIHKIFSKFGKITNDFYPEEDGKTKGYIFLEYASPAHAVDAVKNADGYKLDKQHTFRVNLFTDFDKYMTISDEW", "modifications": "C-terminal His6 tag; p116 175..279 corresponds to a portion (RRM) of eIF3 p116 subunit"}},
  "key": {"[1]": {"test_system": "HCV IRES-controlled Firefly luciferase synthesis in HeLa cells", "experiment": "Bicistronic construct in HeLa cells: IRES-dependent (cap-independent) translation, Firefly luciferase", "format": "cell-based", "conditions": "for IRES specificity of translation inhibition (in words): IRES-dependent versus cap-dependent translation, HeLa cells; for inhibition at 2000 µM: 2 mM", "method": "(§1) Bicistronic constructs consisting of a first cistron corresponding to the Renilla luciferase gene, followed by the IRES sequence, followed by a second cistron corresponding to the Firefly luciferase gene (pRluc-IRES-Fluc) are prepared in the following way. A plasmid pRL-SV40 (Promega) is linearized with Xba I and dephosphorylated. In parallel, the IRES is amplified with the Firefly luciferase gene by PCR, in the presence of complementary oligonucleotides containing the Xba I sites. The PCR products are then subcloned in plasmid pTrcHis2-TOPO (Invitrogen) in order to control the digestion. The ligation of the insert containing the IRES with the Firefly luciferase gene and the linearized vector pRL-SV40 is carried out using T4 DNA ligase (Biolabs).\n(§2) 10^7 HeLa cells suspended in serum-free DMEM are transfected with 1 to 2.5 μg of plasmid pRluc-IRES-Fluc by electroporation at […] for 30 milliseconds using a Gene Pulser (BioRad). […] The Renilla luciferase activity (cap-dependent translation) and that of the Firefly luciferase (cap-independent=viral translation) in the cell lysates is measured and compared by means of the Dual-luciferase assay (Promega) and of a Lumat LB9507 luminometer (Berthold)."}, "[2]": {"target": "T1, p116 RRM/consensus sequence of region II of the HCV IRES complex (Homo sapiens, UniProt P55884)", "T1 construct": "His6 (C); made in house; host or cells: E. coli BL21lysS", "experiment": "In vitro screening assay: inhibition of binding of the RRM of p116 to the consensus sequence of region II of the IRES (nitrocellulose retention)", "design": "species or system HCV (IRES RNA); eIF3 p116 RRM cDNA from HeLa cells", "conditions": "for inhibition of the formation of the RNA-protein complex (in words): 4 different concentrations tested", "method": "(§3) Radiolabeled RNA fragments are obtained by in vitro transcription of the abovementioned templates in the presence of [α-32P]UTP. The RNA fragments are purified in a 6% acrylamide-urea gel and precipitated. The RNA pellets are taken up in 25 mM Tris-HCl, pH 7.4. In order to allow renaturation, the RNA was incubated at 65° C. in the abovementioned buffer for 5-7 min and then slowly cooled to ambient temperature. The renatured RNAs were incubated with increasing concentrations of protein in the same 25 mM Tris-HCl buffer, pH 7.4, at ambient temperature for 5 min.\nThe mixture of proteins and of RNA is then deposited onto a nitrocellulose membrane washed beforehand with the same buffer. The radioactivity of the filter containing the RNA-protein complexes was measured using a Trilux MicroBeta radioactivity counter (PerkinElmer). […]\nThe screening assay is carried out as follows. The RRM of p116 and the consensus sequence of region II are incubated in the presence of various aminoglycosides. The RNA mixture is then deposited onto a nitrocellulose membrane under the same conditions as in example 2."}, "[3]": {"test_system": "cap-controlled Renilla luciferase synthesis in HeLa cells", "experiment": "Bicistronic construct in HeLa cells: cap-dependent translation, Renilla luciferase", "format": "cell-based", "conditions": "for cap-dependent synthesis, % of control: 2.5 μg of pDNA (FIG. 9C)", "method": "as §1, §2"}, "entire IRES of HCV": {"target": "entire IRES of HCV", "experiment": "Affinity of the RRM of p116 for the whole IRES by retention on nitrocellulose", "format": "binding", "conditions": "25 mM Tris-HCl pH 7.4, read-out: apparent Kd", "method": "as §3\nThe mixture of proteins and of RNA is then deposited onto a nitrocellulose membrane washed beforehand with the same buffer. The radioactivity of the filter containing the RNA-protein complexes was measured using a Trilux MicroBeta radioactivity counter (PerkinElmer)."}, "[4]": {"conditions": "concentrations of 1, 2 and 5 mM"}},
  "note": "Entries after “also recorded” stand apart in the source; their conditions may differ. Where two headings read alike, the source gives them in different places.",
  "data": [
    {"molecule": "CN[C@@H]1[C@@H](O)[C@@H](O[C@@H]2[C@@H](O)[C@H](O[C@H]3O[C@H]([C@@H](C)O)[C@@H](O)[C@H](O)[C@H]3N)[C@@H](N)C[C@H]2N)OC[C@]1(C)O", "note": "[G418]", "values": [
      {"measurement": "IRES specificity of translation inhibition (in words)", "setting": "[1]", "value": "inhibit both the cap-dependent and IRES-dependent translation in an IRES-nonspecific manner"}
    ]},
    {"molecule": "NC[C@H]1O[C@H](O[C@H]2[C@H](O)[C@@H](O[C@H]3O[C@H](CO)[C@@H](O)[C@H](N)[C@H]3O)[C@H](N)C[C@@H]2N)[C@H](O)[C@@H](O)[C@@H]1O", "note": "[kanamycin A]", "values": [
      {"measurement": "inhibition of the p116 RRM/II complex", "setting": "[2]; 20 μM", "value": 0, "unit": "%"},
      {"measurement": "inhibition of the p116 RRM/II complex", "setting": "[2]; 40 μM", "value": 0, "unit": "%"},
      {"measurement": "inhibition of the p116 RRM/II complex", "setting": "[2]; 80 μM", "value": 0, "unit": "%"}
    ]},
    {"molecule": "NC[C@H]1O[C@H](O[C@H]2[C@H](O)[C@@H](O[C@H]3O[C@H](CO)[C@@H](O)[C@H](N)[C@H]3O)[C@H](N)C[C@@H]2N)[C@H](N)[C@@H](O)[C@@H]1O", "note": "[kanamycin B]", "values": [
      {"measurement": "inhibition of the p116 RRM/II complex", "setting": "[2]; 20 μM", "value": 22, "unit": "%"}
    ]},
    {"molecule": "NC[C@@H]1O[C@H](O[C@H]2[C@@H](O)[C@H](O[C@@H]3[C@@H](O)[C@H](N)C[C@H](N)[C@H]3O[C@H]3O[C@H](CO)[C@@H](O)[C@H](O)[C@H]3N)O[C@@H]2CO)[C@H](N)[C@@H](O)[C@@H]1O", "note": "[paramomycin]", "values": [
      {"measurement": "IRES specificity of translation inhibition (in words)", "setting": "[1]", "value": "moderately IRES-specific"},
      {"measurement": "inhibition of IRES-dependent translation", "setting": "[1]; [4]", "value": 37, "unit": "%"},
      {"measurement": "inhibition of cap-dependent translation", "setting": "[3]; [4]", "value": 6.3, "unit": "%"}
    ]},
    {"molecule": "[H]/N=C(/N)N[C@H]1[C@H](O)[C@@H](O)[C@H](O[C@@H]2O[C@@H](C)[C@](O)(C=O)[C@H]2O[C@@H]2O[C@@H](CO)[C@H](O)[C@@H](O)[C@@H]2NC)[C@@H](N/C(N)=N\\[H])[C@@H]1O", "note": "[streptomycin]", "values": [
      {"measurement": "inhibition at 20 µM", "setting": "[2]; 20 μM", "value": 25, "unit": "%"},
      {"measurement": "inhibition at 40 µM", "setting": "[2]; 40 μM", "value": 36, "unit": "%"},
      {"measurement": "inhibition of the formation of the RNA-protein complex (in words)", "setting": "[2]", "value": "inhibit the formation of the RNA-protein complex at all the concentrations tested"},
      {"measurement": "IRES specificity of translation inhibition (in words)", "setting": "[1]", "value": "inhibits the translation of the two cistrons in an IRES-nonspecific manner"}
    ]},
    {"molecule": "NC[C@H]1O[C@H](O[C@H]2[C@H](O)[C@@H](O[C@H]3O[C@H](CO)[C@@H](O)[C@H](N)[C@H]3O)[C@H](N)C[C@@H]2N)[C@H](N)C[C@@H]1O", "note": "[tobramycin]", "values": [
      {"measurement": "inhibition at 20 µM", "setting": "[2]; 20 μM", "value": 43, "unit": "%"},
      {"measurement": "inhibition at 40 µM", "setting": "[2]; 40 μM", "value": 54, "unit": "%"},
      {"measurement": "inhibition of the formation of the RNA-protein complex (in words)", "setting": "[2]", "value": "inhibit the formation of the RNA-protein complex at all the concentrations tested; also recorded: capable of dissociating the p116/II complex in vitro, at all the concentrations tested"},
      {"measurement": "inhibition at 1000 µM", "setting": "[1]; Hepatitis C virus, HeLa, read-out: inhibition of the synthesis of the Firefly luciferase controlled by the IRES", "value": 90.4, "unit": "%"},
      {"measurement": "inhibition at 2000 µM", "setting": "[1]; Hepatitis C virus, HeLa, 1 μg of plasmid DNA (FIG. 9B), read-out: inhibition of IRES-luciferase synthesis", "value": 83, "unit": "%"},
      {"measurement": "inhibition at 2000 µM", "setting": "[1]; Hepatitis C virus, HeLa, 2.5 μg of pDNA (FIG. 9C), read-out: inhibition of the IRES-dependent translation", "value": 36.5, "unit": "%"},
      {"measurement": "inhibition at 5000 µM", "setting": "[1]; Hepatitis C virus, HeLa, 5 mM, 2.5 μg of pDNA (FIG. 9C)", "value": 69, "unit": "%"},
      {"measurement": "IRES specificity of translation inhibition (in words)", "setting": "[1]", "value": "the most specific inhibitor of the IRES-controlled translation"},
      {"measurement": "synthesis of the Renilla luciferase (cap-controlled), % of the control", "setting": "[3]; 1 mM, 1 μg of plasmid DNA (FIG. 9B)", "value": "168 % of the control"},
      {"measurement": "cap-dependent synthesis, % of control", "setting": "[3]; 2 mM", "value": "268 % of control"},
      {"measurement": "cap-dependent synthesis, % of control", "setting": "[3]; 5 mM", "value": "134 % of control"},
      {"measurement": "inhibition at 2000 µM", "setting": "[3]; Renilla, HeLa, 2 mM, 1 μg of plasmid DNA (FIG. 9B)", "value": 27, "unit": "%"}
    ]},
    {"molecule": "B1", "values": [
      {"measurement": "Kd", "setting": "entire IRES of HCV", "value": 800, "unit": "nM"}
    ]}
  ]
}
